The nature of series [1]: Study of interaction with 5-FU in rats. The conditions noted are these: for Body weight (pre.) / Feed intake (pre.): before test; for interaction with 5-FU: Groups 5 and 6, preparations for topical use combined with 5-FU. The class given is in vivo, Female Wister rats. The text has this: Interactions with 5-FU, a fluorouracil-based anticancer drug, were studies using sorivudine (BVAU) 3% cream and CVAU 3% cream. Female Wister rats were raised for one week, and hair from the blade bone to the waist was shaved under anesthesia. The preparations for topical use were applied two times a day for one week. The expression “p.o.” appearing in the table means oral administration.
Erythrocyte count and leukocyte count are values measured seven days after the start of administration.

The test system of series [2] is HSV-1. The conditions noted are these: against HSV-1; cited from earlier work.
For series [3], the system named is EBV. The conditions noted are these: against EBV; cited from earlier work.
Series [4] concerns VZV. Conditions: against VZV; cited from earlier work.
Series [5] has as its system HSV-1. The conditions noted are these: application to the skin, mice; cited from earlier work.
The conditions of series [6]: cited from earlier work.
For series [7] the following is noted: oral agent, administered at the same time; cited from earlier work.
The target in series [8] is T1, dihydropyrimidine dehydrogenase (DPD) (Homo sapiens, UniProt Q12882).
T1 sequence (Q12882 4-1025): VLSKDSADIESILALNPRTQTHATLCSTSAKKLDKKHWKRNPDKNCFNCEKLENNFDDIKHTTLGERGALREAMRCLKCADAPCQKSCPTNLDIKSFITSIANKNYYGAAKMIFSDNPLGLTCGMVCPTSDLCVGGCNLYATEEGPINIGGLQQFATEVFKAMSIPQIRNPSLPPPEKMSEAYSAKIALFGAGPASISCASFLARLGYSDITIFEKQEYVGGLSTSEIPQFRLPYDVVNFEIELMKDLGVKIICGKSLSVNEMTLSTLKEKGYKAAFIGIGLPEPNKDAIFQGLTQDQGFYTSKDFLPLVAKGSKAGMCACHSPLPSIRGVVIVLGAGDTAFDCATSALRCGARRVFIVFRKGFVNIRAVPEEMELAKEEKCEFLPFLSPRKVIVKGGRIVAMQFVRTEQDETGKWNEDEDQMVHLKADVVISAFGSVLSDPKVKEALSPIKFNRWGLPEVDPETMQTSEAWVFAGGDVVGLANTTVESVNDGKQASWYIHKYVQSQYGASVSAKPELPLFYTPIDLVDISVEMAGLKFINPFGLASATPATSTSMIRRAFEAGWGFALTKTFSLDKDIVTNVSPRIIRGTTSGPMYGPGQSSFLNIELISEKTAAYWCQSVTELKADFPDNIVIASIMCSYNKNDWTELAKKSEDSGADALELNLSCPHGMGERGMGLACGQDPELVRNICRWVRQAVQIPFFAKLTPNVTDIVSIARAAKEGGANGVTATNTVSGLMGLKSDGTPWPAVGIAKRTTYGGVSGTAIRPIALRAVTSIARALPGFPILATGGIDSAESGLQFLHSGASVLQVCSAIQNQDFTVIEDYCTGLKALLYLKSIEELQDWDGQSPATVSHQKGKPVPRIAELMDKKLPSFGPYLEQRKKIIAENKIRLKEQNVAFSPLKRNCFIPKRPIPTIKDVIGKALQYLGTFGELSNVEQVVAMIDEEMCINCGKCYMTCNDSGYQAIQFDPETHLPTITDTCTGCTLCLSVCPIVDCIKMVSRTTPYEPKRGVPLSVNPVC
The conditions noted are these: re-absorbed BVU, metabolite of oral sorivudine; cited from earlier work.

[9] abbreviates: BVAU 30 mg/kg p.o. + 5-FU 60 mg/kg p.o.
Setting [10] is: BVAU 30 mg/kg p.o. + 5-FU 60 mg/kg p.o., seven days after start.
[11] abbreviates: single agent p.o. (BVAU 30 mg/kg; 5-FU 60 mg/kg).
Where [12] appears, read: single agent p.o. (BVAU 30 mg/kg; 5-FU 60 mg/kg), seven days after start of administration.

For `O=c1[nH]c(=O)n([C@@H]2O[C@H](CO)[C@@H](O)[C@@H]2O)cc1/C=C/Br` [sorivudine, 1-β-D-arabinofuranosyl-5-[(E)-2-bromovinyl]uracil], in series [1] (setting [9]), the “Body weight (pre.)” value is recorded as 125 and the “Feed intake (pre.)” value is on record as 16. Also, in series [1] (setting [10]), the “Body weight (7 d)” value is 88, the Erythrocyte count is 892 10^4/mm^3, the “Feed intake (7 d)” value was 3 and the leukocyte count is given as 5.8 10^2/mm^3. Moreover, the “side effect due to interaction with 5-FU” value in series [1] (Group 4, orally administered with 5-FU (positive control)) is “significant weight loss and myelo-suppression”. In series [1], the “interaction with 5-FU” value is “no interaction observed”. Also, in series [1] (setting [11]), the “Body weight (pre.)” value was found to be 124 and the “Feed intake (pre.)” value amounted to 15. Moreover, in series [1] (setting [12]), the “Body weight (7 d)” value came to 143, the Erythrocyte count was 653 10^4/mm^3, the “Feed intake (7 d)” value stood at 16 and the leukocyte count is 45.6 10^2/mm^3. In series [2], the antiviral activity entry was “extremely potent antiviral activity”. Also, in series [3], the antiviral activity entry was “extremely potent antiviral activity”. Further, the antiviral activity result in series [4] was “extremely potent antiviral activity”. The “skin symptoms caused by inoculation with HSV-1” value in series [5] is “suppresses the skin symptoms”. The solubility result in series [6] was “slightly soluble”. The “adverse effect due to drug interaction with fluorouracil-based anticancer drugs” value in series [7] was “died because of the adverse effect due to drug interaction”.

Take `O=c1[nH]cc(/C=C/Br)c(=O)[nH]1` [BVU, bromovinyluracil]: in series [8], the “inhibition of DPD” value was “inhibits”.

As to `O=c1[nH]c(=O)n([C@@H]2O[C@H](CO)[C@@H](O)[C@@H]2O)cc1/C=C/Cl` [CVAU, 1-β-D-arabinofuranosyl-5-[(E)-2-chrolovinyl]uracil], the “interaction with 5-FU” value in series [1] is on record as “no interaction observed”.

Source of the values: patent US20060009401A1, “Method for treatment and prevention of herpes zoster by topical application” (aRigen, Inc., priority 2004, published 2006).
